Measured values: ChEMBL document CHEMBL1122476 (J Med Chem, 1983)

Target: Glutamate receptor ionotropic, AMPA (Rattus norvegicus, UniProt P19490+P19491+P19492+P19493)
Assay: Tested for inhibition of Specific DL-[H]Ionotropic glutamate receptor AMPA binding to rat brain membranes
Format: cell membranes, Membrane

IC50: > 100 µM
Structure (SMILES): COc1noc(C)c1CC(N)C(=O)O (stereo unspecified)
